Columns and labels:
[1] = In vivo expression distribution analysis of delivered luciferase mRNA (RT-PCR in tissues); parameters: species or system C57BL/6J mice; settings: delivered luciferase mRNA, single intramuscular injection 50 μg, 2 h-336 h, RT-PCR
Protocol: In order to investigate the distribution features of lipid-delivering mRNA in vivo, we analyzed the distribution features of the reporter luciferase mRNA of the compounds of the present invention in C57BL/6J mice after administration by a single intramuscular injection. The experimental 10 C57BL/6J mice were enrolled, male and female, each administered 50 μg, with SM102 as the control.
Animals in the negative control group were collected at 2 h and 336 h after administration, and animals in the test group were collected at 2 h, 6 h, 24 h, 48 h, 72 h, 120 h, 168 h, and 336 h after administration whole blood, bone marrow, liver, spleen, heart, kidney, inguinal lymph nodes, mesenteric lymph nodes, spleen, brain, stomach, small intestine, non-injection site muscle, injection site muscle tissue, etc. The RNA content in the samples at each time point was detected by RT-PCR, and the lower limit of quantification of the method was […] to reflect the distribution features in C57BL/6J mice.

luciferase mRNA = assay: Detection of reporter gene (luciferase mRNA) expression in mice in vivo; parameters: species or system BALB/c female mice; settings: LNP-delivered luciferase mRNA, quadriceps muscle injection, IVIS 24 h after injection; dose (5 or 14 μg mRNA) not given
Protocol: The prepared LNP-encapsulated mRNA solution was diluted with PBS buffer to obtain the solution for injection. BALB/c female mice at about 20 g were injected with injection solution at the quadriceps muscle site of mice with an insulin syringe, and each mouse was injected with 50 μL. Two doses were designed: one dose of “5 μg mRNA per 50 μL of injection solution” and the other dose of “14 μg mRNA per 50 μL of injection solution”. BALB/c female mice at about 20 g are injected with PBS buffer at the quadriceps muscle site of mice with an insulin syringe, and each mouse was injected with 50 μL.
After the mice were injected for 24 h, in vivo expression of Luciferase was detected with Perkinelmer's IVIS. The substrate was D-luciferin Sodium salt (GOLDBIO, LUCNA-1G), which was formulated into a concentration of 15 mg/mL with normal saline, filtered and sterilized with a 0.22 μm filter membrane, and stored at −20° C. in aliquots protected from light. Before imaging, each mouse at about 20 g was intraperitoneally injected with 200 μL of substrate solution for 10-20 minutes, and then was anesthetized with isoflurane gas and placed prone on the imaging plate to detect the fluorescence of the animal in vivo, and the results are shown in Table 2.

BALB/c female mice = assay: Acute toxicity analysis of lipid molecules (cationic lipid LNP) in BALB/c female mice; settings: blood 24 h after injection, Ave(SD)
SD rat = assay: Liver injury toxicity analysis of lipid molecules in SD rat (serum ALT and AST); type: in vivo; settings: SD rats, 3 mg/kg mRNA encoding Luciferase via tail vein, serum 24 hours after injection; compared with SM102 (FIGS. 4A, 4B)
Description: In order to further investigate the hepatic injury toxicity of exemplary compounds, we analyze the effect of the compounds of the present invention on serum alanine aminotransferase (ALT) and […] (AST) levels. The experimental 30 SD rats (15 females+15 males, purchased from Zhejiang Weitong Lihua Laboratory Animal Technology Co., Ltd.) were randomly divided into three groups, namely negative control group (PBS), SM102 group, and compound 2 group, each group of […]. According to body weight, each rat was injected with 3 mg/kg of mRNA encoding Luciferase through the tail vein, fasted overnight with supplying water, and whole blood was collected 24 hours after injection, and serum was isolated. The concentration of ALT and AST in the serum of each rat was detected with a fully automated biochemical analyzer, and the test results are shown in FIGS. 4A and 4B.

## CCCCCCCCCCCOC(=O)CCCCCN(CCCCCCO)CCCCCCCC(=O)OC(CCCCCCCC)CCCCCCCC [Example 2]
[1]
  Exposure in tissues and organs, from high to low: injection site muscle, inguinal lymph nodes, whole blood, spleen, non-injection site muscle, bone marrow, heart, liver, mesenteric lymph nodes, kidney, small intestine and brain
Luciferase mRNA
  Average fluorescence intensity: 1.144E+06 P/s/cm^2/sr
BALB/c female mice; high dose group, 150 μg LNP/pc
  Alanine aminotransferase: 41.54 U/L
  Alkaline phosphatase (ALP): 111.86 U/L
  Aspartate aminotransferase: 124.48 U/L
  Creatinine: 12.6 µmol/L
  Total bilirubin (TBIL): 1.25
  γ-Glutamyltransferase (GGT): 0.20 (0.18) U/L
BALB/c female mice; low dose group, 50 μg/pc
  Alanine aminotransferase: 35.32 (2.51) U/L
  Alkaline phosphatase (ALP): 113.3 U/L
  Aspartate aminotransferase: 111.74 U/L
  Creatinine: 12.6 µmol/L
  Total bilirubin (TBIL): 1.22 (0.20)
  γ-Glutamyltransferase (GGT): 0.40 (0.37) U/L
SD rat
  Elevation effect on serum ALT and AST: significantly lower than these of compound SM102

— patent US12312292B2, “Long chain alkyl esteramine lipid compound, preparation method therefor and application thereof in nucleic acid delivery” (RinuaGene Biotechnology Co., Ltd., priority 2022, dated 2025)
